The record followed here is PubChem BioAssay (NCI).

Experiment in all cases: growth of human tumour cells (NCI), 48 h
The test system of assay [1] is 786-0 renal.
For assay [2], the system named is BT-549 breast.
Assay [3] relates to HS 578T breast.
Assay [4] deals with MCF7 breast.
The subject of assay [5] is MDA-MB-231 breast.
Assay [6] deals with MDA-MB-435.
In assay [7] the test system is NCI-H226 lung.
Assay [8] has as its system OVCAR-3 ovarian.
Assay [9] relates to OVCAR-4 ovarian.
In assay [10] the test system is RPMI-8226 leukemia.
The subject of assay [11] is SF-268 CNS.
Assay [12] relates to SN12C renal.
Assay [13] has as its system SNB-75 CNS.
The subject of assay [14] is UACC-257 melanoma.
Assay [15] relates to UACC-62 melanoma.
The subject of assay [16] is MOLT-4 leukemia.
The subject of assay [17] is RXF 393 renal.

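Cells were grown in 96-well plates and exposed to each compound for 48 hours at five concentrations; endpoints were interpolated linearly between bracketing concentrations, or set to the highest concentration if not reached. The concentration for full growth arrest is given as TGI.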 A value given as a limit tells only on which side of the number the result lay.

For `Cc1c2cccc-2ccc2c1[nH]c1ccc(Br)cc12`, the TGI was found to be 27.5 µM in assay [1]; 20.7 µM in assay [2]; 94.3 µM in assay [3]; 19.8 µM in assay [4]; 18.8 µM in [5]; 16.7 µM in assay [6]. Further, the TGI in assay [7] turned out to be 5.6 µM; in assay [8], 13.9 µM; in assay [9] it was 6.62 µM; in [10], 10.2 µM; in [11], 17.2 µM; in assay [12], 27.2 µM. The TGI is 7.89 µM in assay [13], over 100 µM in [14] and 27.1 µM in assay [15].

Consider `CCOC(=O)CCC(C(=O)OCC)n1nnc2ccc(Nc3c(C)[n+]([O-])c4cc(Cl)ccc4[n+]3[O-])cc21` (stereo not given), for which the TGI in [1] was over 100 µM; in assay [2] it was 78.1 µM; in assay [3], over 100 µM; in assay [4], 34.3 µM; in assay [6] it was 40.4 µM; in assay [16], over 100 µM. Also, the TGI in assay [7] was 81.5 µM; in assay [8] it was 34.4 µM; in assay [9], 39.1 µM; in [10], 47 µM; in assay [17], 60.8 µM; in [11], 55.1 µM. The TGI in assay [12] was 66.9 µM; in assay [13], over 100 µM; in [14], 30.8 µM; in [15], 35.1 µM.

As to `COC(=O)n1c(=O)n(-c2ccccc2)c(=O)n1C(=O)Nc1ccccc1`, the TGI in assay [1], in [2], in [3], in assay [5], in assay [6] and in assay [16] was over 100 µM throughout. In addition, the TGI in assay [7] was over 100 µM; in [8] it was over 100 µM; in [9], 87.8 µM; in [10] it was over 100 µM; in [17] it was over 100 µM; in assay [11], over 100 µM. The TGI in assay [13], in [14] and in [15] was over 100 µM throughout.

Consider `Nc1ccc(Nc2c3ccccc3nc3ccccc23)cc1`, for which the TGI in assay [1], in assay [2], in assay [3], in assay [4], in assay [5] and in assay [6] was over 10 µM in each case. For the same compound, the TGI in [16] is over 10 µM; in assay [7], 7.52 µM; in assay [8], over 10 µM; in assay [9] it was over 10 µM; in [10], over 10 µM; in assay [17], over 10 µM. For the same compound, the TGI was over 10 µM in [11], over 10 µM in assay [12], over 10 µM in assay [14] and 5.22 µM in [15].

On to `O=C(Cc1ccccc1)NNc1nc(NNC(=O)c2ccncc2)nc(Nc2ccccc2)n1`, for which the TGI in [1], in [2], in [3], in assay [4], in assay [5] and in assay [16] was over 10 µM each time. In addition, the TGI in assay [9], in assay [10], in assay [11], in assay [12], in [13] and in [14] was over 10 µM in each case. In assay [15], this compound displayed a TGI of over 10 µM.

Turning to `CC[C@H](C)C1=C(O)[N@+]2([O-])Oc3ccc(-c4c(O)c(O)c(-c5ccc(OC(C)=O)cc5)c(OC(C)=O)c4OC(C)=O)cc3O[C@]2([C@@H](C)CC)C(=O)N1O`, the TGI in assay [1], in assay [2], in [3], in [4], in [5] and in [6] was over 50 µM each time. The TGI in assay [16] was 35 µM; in [8], over 50 µM; in assay [9], 31.5 µM; in [10] it was 42 µM; in assay [17], over 50 µM; in assay [11] it was over 50 µM. Moreover, the TGI in assay [12], in [14] and in [15] was over 50 µM throughout.

Consider `O=C1c2cscc2C(=O)C1(O)O`, for which the TGI in assay [1] is over 100 µM; in assay [2] it was 90.9 µM; in assay [3] it was over 100 µM; in [4] it was over 100 µM; in [5], over 100 µM; in [6] it was 99.7 µM. For the same compound, the TGI in assay [16] was 57.8 µM; in assay [7] it was over 100 µM; in [8] it was 67.5 µM; in assay [9] it was over 100 µM; in [10], over 100 µM; in [11], over 100 µM. Further, the figures for the TGI in [12], in assay [14] and in assay [15] were 36.3 µM, 65.1 µM and over 100 µM, respectively.

For the compound `COc1ccc2oc(=O)c(CC=C(C)C)c(O)c2c1C`, the TGI in [1], in assay [2], in [3], in assay [4], in assay [5] and in [6] was over 100 µM throughout. For the same compound, the TGI in assay [16], in assay [7], in [8], in assay [10], in assay [11] and in assay [12] was over 100 µM throughout. Besides, the TGI in assay [13], in [14] and in [15] was over 100 µM throughout.

For the compound `CSCCCNC(=O)c1csc(-c2csc(CCN)n2)n1`, the TGI in assay [1], in assay [2], in [3], in assay [4], in [5] and in assay [6] was over 100 µM each time. Further, the TGI in assay [16], in [8], in assay [9], in assay [10], in assay [17] and in [11] was over 100 µM in each case. The TGI in [12], in assay [14] and in [15] was over 100 µM in each case.
